Test results taken from ChEMBL document CHEMBL5696442, “Discovery of type II inhibitors of TGFβ-activated kinase 1 (TAK1) and mitogen-activated protein kinase kinase kinase kinase 2 (MAP4K2)” (J Med Chem, 2015).
Calls of active or inactive are those of the source. No cut-off for these calls is given here.

Tests used:
[1] = target: Microtubule-associated serine/threonine-protein kinase 2 (Homo sapiens) (UniProt Q6P0Q8); experiment: Inhibition of MAST2 Lys2 labeling site harbouring DLKPDNLLITSMGHIK in human Huh-7 cell lysate at 1 uM by KiNativ Profiling analysis relative to control; type: subcellular
[2] = target: Serine/threonine-protein kinase VRK2 (Homo sapiens) (UniProt Q86Y07); experiment: Inhibition of VRK2 Lys2 labeling site in human Huh-7 cells at 1 uM by KiNativ Profiling analysis relative to control; type: cell-based
Chain of Serine/threonine-protein kinase VRK2 (Homo sapiens) (Q86Y07 whole entry): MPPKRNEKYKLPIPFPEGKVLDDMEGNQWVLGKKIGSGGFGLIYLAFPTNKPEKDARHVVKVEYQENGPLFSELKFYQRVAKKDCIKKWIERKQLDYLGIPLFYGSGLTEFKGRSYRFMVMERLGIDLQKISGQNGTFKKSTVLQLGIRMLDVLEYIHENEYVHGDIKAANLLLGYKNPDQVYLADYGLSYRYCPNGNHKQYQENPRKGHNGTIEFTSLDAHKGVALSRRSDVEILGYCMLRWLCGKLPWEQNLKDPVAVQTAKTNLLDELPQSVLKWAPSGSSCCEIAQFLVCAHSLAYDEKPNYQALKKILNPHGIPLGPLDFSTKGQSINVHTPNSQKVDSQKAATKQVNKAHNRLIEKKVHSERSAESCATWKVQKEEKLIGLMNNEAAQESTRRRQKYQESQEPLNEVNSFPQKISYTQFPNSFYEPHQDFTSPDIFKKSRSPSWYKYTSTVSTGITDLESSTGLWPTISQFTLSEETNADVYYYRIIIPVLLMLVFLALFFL

[3] = target: Serine/threonine-protein kinase WNK1 (Homo sapiens) (UniProt Q9H4A3); experiment: Inhibition of Wnk1 ACT labeling site in human Huh-7 cells at 1 uM by KiNativ Profiling analysis relative to control; type: cell-based
[4] = target: AP2-associated protein kinase 1 (Homo sapiens) (UniProt Q2M2I8); experiment: Inhibition of AAK1 (unknown origin) at 10 uM by Ambit Kinomescan binding assay
Chain of AP2-associated protein kinase 1 (Homo sapiens) (Q2M2I8 whole entry, looked up): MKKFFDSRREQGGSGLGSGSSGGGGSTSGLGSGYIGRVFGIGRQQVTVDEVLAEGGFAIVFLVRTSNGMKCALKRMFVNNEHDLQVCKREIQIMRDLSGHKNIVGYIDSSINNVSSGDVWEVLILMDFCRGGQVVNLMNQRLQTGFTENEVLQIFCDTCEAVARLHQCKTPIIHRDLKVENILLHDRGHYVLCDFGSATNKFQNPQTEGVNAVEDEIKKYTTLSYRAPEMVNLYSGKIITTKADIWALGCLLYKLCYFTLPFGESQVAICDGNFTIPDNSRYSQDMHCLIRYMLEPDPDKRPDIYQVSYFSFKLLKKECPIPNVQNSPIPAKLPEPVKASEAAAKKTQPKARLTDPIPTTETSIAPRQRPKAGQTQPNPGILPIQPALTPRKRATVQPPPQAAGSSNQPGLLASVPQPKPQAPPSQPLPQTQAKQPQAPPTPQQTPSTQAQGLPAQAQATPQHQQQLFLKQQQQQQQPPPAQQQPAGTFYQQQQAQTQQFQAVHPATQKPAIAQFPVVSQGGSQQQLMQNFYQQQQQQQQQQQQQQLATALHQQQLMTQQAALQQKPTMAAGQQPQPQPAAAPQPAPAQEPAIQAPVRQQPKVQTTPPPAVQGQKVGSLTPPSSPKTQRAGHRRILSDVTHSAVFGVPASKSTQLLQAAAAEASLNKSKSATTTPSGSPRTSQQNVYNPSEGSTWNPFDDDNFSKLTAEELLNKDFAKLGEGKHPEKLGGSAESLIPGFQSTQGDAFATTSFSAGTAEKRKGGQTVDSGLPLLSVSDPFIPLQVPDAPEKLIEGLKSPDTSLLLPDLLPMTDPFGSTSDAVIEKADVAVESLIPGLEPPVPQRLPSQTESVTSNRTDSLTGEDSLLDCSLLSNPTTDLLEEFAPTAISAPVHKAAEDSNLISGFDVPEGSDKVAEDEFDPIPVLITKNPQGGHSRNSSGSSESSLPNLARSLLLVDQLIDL

[5] = target: Ephrin type-A receptor 6 (Homo sapiens) (UniProt Q9UF33); experiment: Inhibition of EPHA6 (unknown origin) at 10 uM by Ambit Kinomescan binding assay
[6] = target: Proto-oncogene tyrosine-protein kinase Src (Homo sapiens, UniProt P12931); experiment: Inhibition of SRC K1 labeling site in human Huh-7 cells at 10 uM by KiNativ Profiling analysis relative to control; type: cell-based
[7] = target: Serine/threonine-protein kinase mTOR (Homo sapiens) (UniProt P42345); experiment: Inhibition of FRAP ATP labeling site in human Huh-7 cells at 10 uM by KiNativ Profiling analysis relative to control; type: cell-based
[8] = target: T1, Phosphatidylinositol 5-phosphate 4-kinase type-2 gamma (Homo sapiens) (UniProt Q8TBX8); experiment: Inhibition of PIP5K2C C2 labeling site in human Huh-7 cells at 10 uM by KiNativ Profiling analysis relative to control; type: cell-based
T1 sequence (whole entry): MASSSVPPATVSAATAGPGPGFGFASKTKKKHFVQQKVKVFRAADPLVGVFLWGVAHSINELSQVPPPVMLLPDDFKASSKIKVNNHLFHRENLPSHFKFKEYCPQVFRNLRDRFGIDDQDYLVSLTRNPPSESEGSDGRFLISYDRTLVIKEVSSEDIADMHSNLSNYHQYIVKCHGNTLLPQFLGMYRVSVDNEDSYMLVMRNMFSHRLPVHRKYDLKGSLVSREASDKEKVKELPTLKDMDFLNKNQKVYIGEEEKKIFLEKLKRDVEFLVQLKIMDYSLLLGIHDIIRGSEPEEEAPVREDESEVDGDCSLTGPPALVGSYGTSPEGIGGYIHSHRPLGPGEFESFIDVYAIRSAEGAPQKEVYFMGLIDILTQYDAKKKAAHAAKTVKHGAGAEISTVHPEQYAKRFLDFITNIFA

[9] = target: Mitogen-activated protein kinase kinase kinase 11 (Homo sapiens) (UniProt Q16584); experiment: Inhibition of MLK3 K2 labeling site in human Huh-7 cells at 1 uM by KiNativ Profiling analysis relative to control; type: cell-based
Chain of Mitogen-activated protein kinase kinase kinase 11 (Homo sapiens) (Q16584 whole entry, looked up): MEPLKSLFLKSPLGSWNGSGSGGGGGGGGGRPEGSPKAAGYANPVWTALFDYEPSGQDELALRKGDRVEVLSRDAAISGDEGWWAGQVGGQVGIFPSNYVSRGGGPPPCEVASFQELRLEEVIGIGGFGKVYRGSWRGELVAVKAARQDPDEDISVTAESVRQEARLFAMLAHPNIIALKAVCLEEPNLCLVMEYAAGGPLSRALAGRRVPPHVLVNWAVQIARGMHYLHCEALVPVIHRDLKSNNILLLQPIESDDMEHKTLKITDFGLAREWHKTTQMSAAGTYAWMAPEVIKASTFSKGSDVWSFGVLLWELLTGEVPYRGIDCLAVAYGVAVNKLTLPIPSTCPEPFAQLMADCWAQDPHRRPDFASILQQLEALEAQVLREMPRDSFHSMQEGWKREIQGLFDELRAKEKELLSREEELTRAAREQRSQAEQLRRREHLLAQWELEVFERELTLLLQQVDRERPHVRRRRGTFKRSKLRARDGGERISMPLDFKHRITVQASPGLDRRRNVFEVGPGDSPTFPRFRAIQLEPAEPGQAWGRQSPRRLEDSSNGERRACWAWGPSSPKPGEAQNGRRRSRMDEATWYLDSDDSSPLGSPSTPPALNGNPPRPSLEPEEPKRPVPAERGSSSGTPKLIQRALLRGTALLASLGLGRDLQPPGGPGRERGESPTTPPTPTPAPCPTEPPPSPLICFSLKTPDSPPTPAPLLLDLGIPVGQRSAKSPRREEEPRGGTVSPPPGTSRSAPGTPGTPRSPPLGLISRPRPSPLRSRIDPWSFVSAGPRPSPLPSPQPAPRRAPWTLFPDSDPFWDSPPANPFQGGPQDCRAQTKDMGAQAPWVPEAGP

[10] = target: Serine/threonine-protein kinase 25 (Homo sapiens) (UniProt O00506); experiment: Inhibition of YSK1 ATP labeling site in human Huh-7 cells at 1 uM by KiNativ Profiling analysis relative to control; type: cell-based
[11] = target: Serine/threonine-protein kinase 38 (Homo sapiens) (UniProt Q15208); experiment: Inhibition of NDR1 K1 labeling site in human Huh-7 cells at 1 uM by KiNativ Profiling analysis relative to control; type: cell-based
Chain of Serine/threonine-protein kinase 38 (Homo sapiens) (Q15208 2-465 limits assumed): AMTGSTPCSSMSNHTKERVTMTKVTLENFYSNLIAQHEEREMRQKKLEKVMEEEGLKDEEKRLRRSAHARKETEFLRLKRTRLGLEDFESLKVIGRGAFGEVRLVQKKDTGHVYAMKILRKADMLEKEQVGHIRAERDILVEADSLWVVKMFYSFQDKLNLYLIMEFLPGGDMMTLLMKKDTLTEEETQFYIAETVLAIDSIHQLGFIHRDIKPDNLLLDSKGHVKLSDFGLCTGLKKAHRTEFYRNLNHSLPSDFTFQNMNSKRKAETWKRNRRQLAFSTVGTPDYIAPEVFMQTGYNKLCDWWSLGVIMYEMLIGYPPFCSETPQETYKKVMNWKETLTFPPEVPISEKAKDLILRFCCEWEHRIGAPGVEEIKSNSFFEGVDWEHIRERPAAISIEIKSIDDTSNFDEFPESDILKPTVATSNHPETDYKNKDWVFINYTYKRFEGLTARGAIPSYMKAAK

[12] = target: Cyclin-dependent kinase 14 (Homo sapiens) (UniProt O94921); experiment: Inhibition of PFTAIRE1 Lys2 labeling site in human A-375 cells at 0.05 uM by KiNativ Profiling analysis relative to control
Chain of Cyclin-dependent kinase 14 (Homo sapiens) (O94921 whole entry, looked up): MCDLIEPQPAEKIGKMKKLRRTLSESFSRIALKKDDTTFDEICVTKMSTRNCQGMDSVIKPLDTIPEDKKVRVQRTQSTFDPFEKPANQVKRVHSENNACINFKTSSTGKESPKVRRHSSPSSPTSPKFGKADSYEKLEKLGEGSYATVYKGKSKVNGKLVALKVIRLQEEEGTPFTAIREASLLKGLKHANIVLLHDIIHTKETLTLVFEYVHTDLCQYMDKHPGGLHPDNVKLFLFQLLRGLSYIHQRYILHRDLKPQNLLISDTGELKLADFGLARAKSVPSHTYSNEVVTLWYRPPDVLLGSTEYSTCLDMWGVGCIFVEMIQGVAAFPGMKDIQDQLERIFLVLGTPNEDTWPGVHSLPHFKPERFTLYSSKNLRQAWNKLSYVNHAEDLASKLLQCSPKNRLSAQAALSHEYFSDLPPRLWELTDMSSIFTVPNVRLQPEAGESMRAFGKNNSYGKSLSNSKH

[13] = target: Tyrosine-protein kinase Lyn (Homo sapiens, UniProt P07948); experiment: Inhibition of LYN (unknown origin) at 10 uM by Ambit Kinomescan binding assay relative to control; values are per cent of control
[14] = target: Tyrosine-protein kinase ABL1 (Homo sapiens, UniProt P00519); experiment: Inhibition of nonphosphorylated ABL1 (unknown origin) at 1 uM by Ambit Kinomescan binding assay relative to control
[15] = target: MAP/microtubule affinity-regulating kinase 3 (Homo sapiens) (UniProt P27448); experiment: Inhibition of MARK3 Lys2 labeling site in human A-375 cells at 0.5 uM by KiNativ Profiling analysis relative to control; type: cell-based
Chain of MAP/microtubule affinity-regulating kinase 3 (Homo sapiens) (P27448 whole entry, looked up): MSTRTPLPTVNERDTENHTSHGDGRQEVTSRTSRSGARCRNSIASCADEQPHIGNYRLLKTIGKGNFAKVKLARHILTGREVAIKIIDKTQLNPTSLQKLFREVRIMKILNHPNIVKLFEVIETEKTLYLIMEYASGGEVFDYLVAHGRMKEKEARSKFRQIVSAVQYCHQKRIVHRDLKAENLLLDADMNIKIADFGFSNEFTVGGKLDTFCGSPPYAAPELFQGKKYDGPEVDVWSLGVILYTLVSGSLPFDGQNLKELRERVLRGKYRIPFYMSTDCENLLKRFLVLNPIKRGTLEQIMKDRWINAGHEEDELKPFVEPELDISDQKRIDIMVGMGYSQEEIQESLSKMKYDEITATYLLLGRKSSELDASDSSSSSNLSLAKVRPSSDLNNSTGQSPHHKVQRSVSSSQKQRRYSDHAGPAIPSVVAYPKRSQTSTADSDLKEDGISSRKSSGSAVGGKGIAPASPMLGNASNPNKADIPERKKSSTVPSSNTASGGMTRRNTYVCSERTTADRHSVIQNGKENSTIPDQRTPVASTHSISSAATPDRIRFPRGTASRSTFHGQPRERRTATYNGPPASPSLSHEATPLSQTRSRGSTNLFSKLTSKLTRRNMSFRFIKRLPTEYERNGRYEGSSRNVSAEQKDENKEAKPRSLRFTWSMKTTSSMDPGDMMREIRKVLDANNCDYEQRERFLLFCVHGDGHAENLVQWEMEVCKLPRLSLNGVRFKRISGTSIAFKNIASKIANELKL

[16] = target: Serine/threonine-protein kinase Nek4 (Homo sapiens) (UniProt P51957); experiment: Inhibition of NEK4 Lys2 labeling site in human A-375 cells at 0.5 uM by KiNativ Profiling analysis relative to control; type: cell-based
[17] = target: Cyclin-dependent kinase 7 (Homo sapiens) (UniProt P50613); experiment: Inhibition of CDK7 Lys2 labeling site in human A-375 cells at 0.05 uM by KiNativ Profiling analysis relative to control; type: cell-based
Chain of Cyclin-dependent kinase 7 (Homo sapiens) (P50613 whole entry, the tested form may be a part): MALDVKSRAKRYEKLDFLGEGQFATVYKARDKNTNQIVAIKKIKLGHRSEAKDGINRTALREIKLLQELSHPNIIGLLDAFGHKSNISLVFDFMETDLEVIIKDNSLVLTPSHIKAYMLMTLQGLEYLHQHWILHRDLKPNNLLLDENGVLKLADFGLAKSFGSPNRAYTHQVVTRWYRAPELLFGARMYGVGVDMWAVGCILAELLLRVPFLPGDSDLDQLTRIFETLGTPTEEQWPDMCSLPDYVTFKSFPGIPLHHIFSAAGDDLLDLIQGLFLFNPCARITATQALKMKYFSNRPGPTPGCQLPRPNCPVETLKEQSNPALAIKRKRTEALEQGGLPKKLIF

[18] = target: Epithelial discoidin domain-containing receptor 1 (Homo sapiens) (UniProt Q08345); experiment: Inhibition of DDR1 (unknown origin) at 1 uM by Ambit Kinomescan binding assay relative to control; values are per cent of control
[19] = target: Myosin light chain kinase 2, skeletal/cardiac muscle (Homo sapiens) (UniProt Q9H1R3); experiment: Inhibition of MYLK2 (unknown origin) at 1 uM by Ambit Kinomescan binding assay relative to control; values are per cent of control
Chain of Myosin light chain kinase 2, skeletal/cardiac muscle (Homo sapiens) (Q9H1R3 whole entry): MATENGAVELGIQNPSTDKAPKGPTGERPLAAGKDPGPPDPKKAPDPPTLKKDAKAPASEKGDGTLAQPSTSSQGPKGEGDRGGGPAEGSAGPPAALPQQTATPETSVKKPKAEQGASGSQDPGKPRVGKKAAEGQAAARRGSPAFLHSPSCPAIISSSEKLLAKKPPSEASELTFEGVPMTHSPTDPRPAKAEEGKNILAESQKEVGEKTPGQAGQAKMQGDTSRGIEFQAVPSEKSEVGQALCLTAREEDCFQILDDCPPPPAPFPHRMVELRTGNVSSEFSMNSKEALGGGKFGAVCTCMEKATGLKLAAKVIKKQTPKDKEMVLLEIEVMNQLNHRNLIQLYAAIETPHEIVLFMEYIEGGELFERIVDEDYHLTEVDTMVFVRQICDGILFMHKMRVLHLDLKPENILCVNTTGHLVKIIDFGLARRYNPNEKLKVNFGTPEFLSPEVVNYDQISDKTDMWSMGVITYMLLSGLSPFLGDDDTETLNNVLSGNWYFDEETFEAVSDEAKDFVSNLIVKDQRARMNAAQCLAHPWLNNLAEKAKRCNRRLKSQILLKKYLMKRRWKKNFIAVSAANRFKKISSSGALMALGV

With `CNc1cc(Oc2cc(C(=O)Nc3cc(N4CCN(C)CC4)cc(C(F)(F)F)c3)ccc2C)ncn1` the inhibition [1] was 7.2%, the inhibition [2] was 40.4% and the inhibition [3] was 21.6%.

`CCN1CCN(Cc2ccc(NC(=O)c3ccc(C)c(Oc4ccnc5[nH]ccc45)c3)cc2C(F)(F)F)CC1` was tested, and the inhibition [4] was “inactive”, the inhibition [5] was “inactive” and the inhibition [6] was 50.1%. The inhibition [7] was “inactive”, the inhibition [8] was 2.3% and the inhibition [9] was -1.6%. It also gave an inhibition [10] of 18%, an inhibition [11] of 4.4% and an inhibition [12] of 0.6%. For the same compound, the percent of control [13] was 0.75%.

`CCN1CCN(Cc2ccc(NC(=O)c3ccc(C)c(/C=C/c4cnc5[nH]ccc5c4OC)c3)cc2C(F)(F)F)CC1` showed an inhibition [14] of 0%, an inhibition [15] of 9.1% and an inhibition [16] of 8.6%. For the same compound, the inhibition [17] was 32.7%, the % of control [18] was 0.05% and the residual activity [19] was 4.6%.
